Results taken from patent US4468511A, “C-20- And C-23-Modified macrolide derivatives” (Eli Lilly and Company, priority 1983, dated 1984).
Converted amounts (≈) assume the structure as drawn. Read-outs that look alike come from different tables or passages of the source.

What was measured:
[1] = system: Escherichia coli EC14; test: MIC, standard agar-dilution assay; type: cell-based; settings: agar-dilution; Escherichia coli EC14; read-out: MIC
Protocol: (§1) Certain of the derivatives are active against some gram-negative bacteria, such as Pasteurella species. The MIC's in Table II were determined by standard agar-dilution assays. The MIC's in Table III were obtained using a conventional broth-dilution microtiter test.

[2] = system: Escherichia coli TEM; test: MIC, standard agar-dilution assay; type: cell-based; settings: Escherichia coli
Method in brief: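 Minimum inhibitory concentrations against Escherichia coli were measured with a standard agar-dilution method. The result for each derivative is the lowest concentration that inhibits bacterial growth, given in ug/mL.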

[3] = system: Klebsiella pneumoniae KAE; test: MIC, standard agar-dilution assay; type: cell-based; settings: agar-dilution; Klebsiella pneumoniae KAE; read-out: MIC
Method in brief: (§2)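 Method depends on organism. Klebsiella pneumoniae was assayed on agar. Pasteurella spp. and Mycoplasma gallisepticum were assayed in broth microtiter dilution.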

[4] = system: Klebsiella pneumoniae X26; test: MIC, standard agar-dilution assay; type: cell-based; settings: agar-dilution; Klebsiella pneumoniae X26; read-out: MIC
Method in brief: (§3)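 MICs for the two Pasteurella strains and the Mycoplasma strain were read from a broth-dilution microtiter test. The Klebsiella strain was tested on agar instead.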

[5] = system: Staphylococcus aureus V41; test: MIC, standard agar-dilution assay; type: cell-based; settings: Staphylococcus aureus, V41
Protocol: as §1

[6] = system: Staphylococcus aureus X1.1; test: MIC, standard agar-dilution assay; type: cell-based; settings: Staphylococcus aureus, X1.1
Method in brief: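 Minimum inhibitory concentration against Staphylococcus aureus strain X1.1 was measured with a standard agar-dilution method. The result is reported as the MIC in ug/mL, i.e. the lowest compound concentration in agar that prevents visible growth of this organism.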

[7] = system: Streptococcus Group D X66; test: MIC, standard agar-dilution assay; type: cell-based
Protocol: as §1

[8] = system: Streptococcus pneumoniae Park I; test: MIC, standard agar-dilution assay; type: cell-based; settings: Streptococcus pneumoniae
Protocol: as §1

[9] = system: Streptococcus pyogenes 9960; test: MIC, standard agar-dilution assay; type: cell-based; settings: agar-dilution, Streptococcus 9960, read-out: MIC
Protocol: as §1

[10] = system: Streptococcus pyogenes C203; test: MIC, standard agar-dilution assay; type: cell-based; settings: agar-dilution; Streptococcus pyogenes C203; read-out: MIC
Protocol: as §1

[11] = system: Haemophilus influenzae 76; test: MIC, standard agar-dilution assay; type: cell-based; settings: Haemophilus influenzae, 76
Protocol: (§4) The MIC's in Table II were determined by standard agar-dilution assays. The MIC's in Table III were obtained using a conventional broth-dilution microtiter test.

[12] = system: Haemophilus influenzae C.L.; test: MIC, standard agar-dilution assay; type: cell-based; settings: agar-dilution; Haemophilus influenzae C.L., Ampicillin-sensitive strain; read-out: MIC
Protocol: as §4

[13] = system: Staphylococcus aureus X400; test: MIC, standard agar-dilution assay; type: cell-based; settings: Staphylococcus aureus, X400
Protocol: as §4

[14] = system: Staphylococcus epidermidis EPI2; test: MIC, standard agar-dilution assay; type: cell-based; settings: Staphylococcus epidermidis, EPI2
Protocol: as §4

[15] = system: Staphylococcus aureus S13E; test: microbe, parasite or virus in culture; type: cell-based
Protocol: as §4

[16] = system: Staphylococcus epidermidis EPI1; test: microbe, parasite or virus in culture; type: cell-based; settings: Staphylococcus epidermidis, EPI1
Protocol: as §4

[17] = system: Mycoplasma gallisepticum 34159; test: MIC, conventional broth-dilution microtiter test; type: cell-based; settings: Mycoplasmoides gallisepticum; broth-dilution microtiter; Mycoplasma gallisepticum 34159, Resistant strain; read-out: MIC
Method in brief: as §2

[18] = system: Mycoplasma gallisepticum 41313; test: MIC, conventional broth-dilution microtiter test; type: cell-based; settings: Mycoplasmoides gallisepticum; broth-dilution microtiter; Mycoplasma gallisepticum 41313, Resistant strain; read-out: MIC
Method in brief: as §2

[19] = system: Mycoplasma gallisepticum; test: MIC, conventional broth-dilution microtiter test; type: cell-based; settings: Mycoplasmoides gallisepticum
Method in brief: as §2

[20] = system: Mycoplasma hyorhinis; test: MIC, conventional broth-dilution microtiter test; type: cell-based; settings: broth-dilution microtiter; Mycoplasma hyorhinis; read-out: MIC
Method in brief: as §3

[21] = system: Mycoplasma synoviae; test: MIC, conventional broth-dilution microtiter test; type: cell-based; settings: Mycoplasmopsis synoviae; broth-dilution microtiter; Mycoplasma synoviae; read-out: MIC
Method in brief: as §3

[22] = system: Pasteurella hemolytica 22C; test: MIC, conventional broth-dilution microtiter test; type: cell-based; settings: Pasteurella, 22C
Method in brief: as §2

[23] = system: Pasteurella hemolytica 23C; test: MIC, conventional broth-dilution microtiter test; type: cell-based; settings: Pasteurella, 23C
Method in brief: as §2

[24] = system: Pasteurella hemolytica 41D; test: MIC, conventional broth-dilution microtiter test; type: cell-based; settings: Pasteurella, 41D
Method in brief: as §2

[25] = system: Pasteurella multocida 17E; test: MIC, conventional broth-dilution microtiter test; type: cell-based; settings: Pasteurella multocida, 17E
Method in brief: as §2

[26] = system: Pasteurella multocida 22A; test: MIC, conventional broth-dilution microtiter test; type: cell-based; settings: Pasteurella multocida, 22A
Method in brief: as §2

[27] = system: Pasteurella multocida 40G; test: MIC, conventional broth-dilution microtiter test; type: cell-based; settings: Pasteurella multocida, 40G
Method in brief: as §2

[28] = system: Pasteurella multocida 60A; test: MIC, conventional broth-dilution microtiter test; type: cell-based; settings: Pasteurella multocida, 60A
Method in brief: as §2

[29] = system: Pasteurella multocida 68C; test: MIC, conventional broth-dilution microtiter test; type: cell-based; settings: Pasteurella multocida, 68C
Method in brief: as §2

[30] = system: Staphylococcus aureus; test: MIC, conventional broth-dilution microtiter test; type: cell-based; settings: broth-dilution microtiter, read-out: MIC
Protocol: as §1

[31] = system: Streptococcus sp. 80; test: MIC, conventional broth-dilution microtiter test; type: cell-based; settings: Streptococcus, SP.80
Protocol: as §1

[32] = system: Streptococcus pyogenes C203; test: Protection of mice experimentally infected with S. pyogenes C203; type: in vivo
Protocol: Some of the derivatives of this invention have shown in vivo antimicrobial activity against experimentally-induced infections in laboratory animals. When two doses of test compound were administered to mice experimentally infected with S. pyogenes C203, the activity observed was measured as an ED50 value [effective dose in mg/kg to protect 50% of the test animals: see Warren Wick, et al., J. Bacteriol. 81, 233-235 (1961)].

[33] = system: Pasteurella multocida; test: Pasteurella infection in one-day old chicks; type: in vivo; settings: subcutaneous, 30 mg/kg × 2, 1 and 4 hours post-challenge
Protocol: Certain of the formula 1 compounds of this invention have also shown in vivo activity against infections induced by gram-negative bacteria. Table V summarizes the results of tests in which illustrative compounds were evaluated against a Pasteurella infection in one-day old chicks. The compounds were administered parenterally after challenge of the chicks with Pasteurella multocida (0.1 ml of a 10^-4 dilution of a twenty-hour tryptose broth culture of an avian P. multocida given subcutaneously). In these tests, unless indicated otherwise, all non-medicated infected chicks died within 24 hours of Pasteurella challenge. In the tests summarized in Table V, the compounds were administered by subcutaneous injection at a dosage of 30 mg/kg, 1 and 4 hours post-challenge of the chicks with P. multocida.

CCC1CC(C)C(=O)C=CC(C)=CC(CN2CCCCCCC2)C(CC)OC(=O)CC(O)C(C)C1OC1OC(C)C(O)C(N(C)C)C1O (stereo not shown) [Compound 43, 23-Octahydroazocin-1-yl-20,23-dideoxy-20-dihydro-OMT]
MIC [1]: > 128 µg/mL | MIC [2]: 16 µg/mL (≈ 23.6 µM) | MIC [3]: > 128 µg/mL | MIC [4]: 4 µg/mL (≈ 5.89 µM) | MIC [5]: 0.5 µg/mL (≈ 0.736 µM) | MIC [6]: 0.5 µg/mL (≈ 0.736 µM) | MIC [7]: 1 µg/mL (≈ 1.47 µM) | MIC [8]: 1 µg/mL (≈ 1.47 µM) | MIC [9]: 2 µg/mL (≈ 2.95 µM) | MIC [10]: 0.12 µg/mL (≈ 0.177 µM) | MIC [11]: 8 µg/mL (≈ 11.8 µM) | MIC [12]: 4 µg/mL (≈ 5.89 µM) | MIC [13]: 1 µg/mL (≈ 1.47 µM) | MIC [14]: 0.25 µg/mL (≈ 0.368 µM) | MIC [15]: 0.5 µg/mL (≈ 0.736 µM) | MIC [16]: 0.5 µg/mL (≈ 0.736 µM) | MIC [17]: > 50 µg/mL | MIC [18]: > 50 µg/mL | MIC [19]: 0.78 µg/mL (≈ 1.15 µM) | MIC [20]: 50 µg/mL (≈ 73.6 µM) | MIC [21]: > 50 µg/mL | MIC [22]: 0.78 µg/mL (≈ 1.15 µM) | MIC [23]: 1.56 µg/mL (≈ 2.3 µM) | MIC [24]: 1.56 µg/mL (≈ 2.3 µM) | MIC [25]: 0.78 µg/mL (≈ 1.15 µM) | MIC [26]: 1.56 µg/mL (≈ 2.3 µM) | MIC [27]: 1.56 µg/mL (≈ 2.3 µM) | MIC [28]: 0.78 µg/mL (≈ 1.15 µM) | MIC [29]: 1.56 µg/mL (≈ 2.3 µM) | MIC [30]: 0.39 µg/mL (≈ 0.574 µM) | MIC [31]: 0.78 µg/mL (≈ 1.15 µM) | ED50 ([32]; C203, po, read-out: ED50 Oral): > 100 mg/kg | ED50 ([32]; C203, sc, mice, subcutaneous, mg/kg × 2, doses given 1 and 4 hours postinfection, read-out: ED50 Subcutaneous): > 12.5 mg/kg | Number of Deaths/Number Treated [33]: 8/10
